Laboratory results reported in patent US6655379B2, “Aerosolized active agent delivery” (Nektar Therapeutics, priority 1998, dated 2003).

What was measured:
[1] = human, in vivo
[2] = in vivo; cited from earlier work

Substance | therapeutic effect, comparison of flow rates (dry powder inhaled, flow rates below 17 liters per minute vs above 17 liters per minute) | lung deposition, comparison of flow rates (human, in vivo) | bioavailabilities, comparison of flow rates [1] | times to peak concentration, comparison of flow rates [1] | efficiency of absorption as compared to subcutaneous delivery [2]
Albuterol sulfate | increased therapeutic effect | higher lung deposition |  |  | 
Human calcitonin: Powders containing 26.7% human calcitonin (Ciba-Geigy), spray dried with mannitol and citrate buffer |  |  | higher bioavailabilities | lower times to peak concentration | 
Low molecular weight heparin |  |  | higher bioavailabilities | lower times to peak concentration | 
semi-synthetic human insulin: semi-synthetic human insulin delivered by nebulizer to six diabetic children (Elliot et al) |  |  |  |  | 20-25%
